Results: US4036846A, “3-Hydroxy and 3-acetoxy-6-triphenyl-methylaminopenams” (priority 1976, dated 1977)
Values joined by “and” are separate entries in the source; they are usually repeats but may differ in a detail not shown here. Equal values may be shown once. Where a name gives a salt, the structure may show the parent alone. Read-outs that look alike come from different tables or passages of the source.

Columns and labels:
Assay in all cases: microbe, parasite or virus in culture
Staph. aureus 01A006 = format: cell-based, Staphlococcus aureus; settings: brain-heart infusion agar, 37° C., anaerobic, sodium salts, separate Test Nos. 1-3; for MIC: Staphylococcus aureus
Strep. zoo. 02H001 = format: cell-based, Streptococcus zoobacter; settings: brain-heart infusion agar, 37° C., anaerobic, sodium salts, separate Test Nos. 1-3; for MIC: Streptococcus
Staph. aureus 01A005 = format: cell-based, Staphlococcus aureus; settings: brain-heart infusion agar, 37° C., anaerobic, sodium salts, separate Test Nos. 1-3; for MIC: Staphylococcus aureus
Strep. equi. 02I001 = format: cell-based, Streptococcus equis; settings: brain-heart infusion agar, 37° C., anaerobic, sodium salts, separate Test Nos. 1-3

Row | Structure (SMILES) | MIC (Staph. aureus 01A006; Staph. aureus 01A006, read-out: MIC (minimal inhibitory concentration)) | MIC (Strep. zoo. 02H001; Strep. zoo. 02H001, read-out: MIC (minimal inhibitory concentration)) | MIC (Staph. aureus 01A005; Staph. aureus 01A005, read-out: MIC (minimal inhibitory concentration)) | MIC (minimal inhibitory concentration) (Staph. aureus 01A006; Staph. aureus 01A006, sodium salt) | MIC (Staph. aureus 01A006; 01A006, read-out: MIC (minimal inhibitory concentration), Staph. aureus 01A006) | MIC (minimal inhibitory concentration) (Strep. zoo. 02H001; Strep. zoo. 02H001, sodium salt) | MIC (Strep. zoo. 02H001; read-out: MIC (minimal inhibitory concentration), Strep. zoo. 02H001) | MIC (minimal inhibitory concentration) (Strep. equi. 02I001; Strep. equi. 02I001, sodium salt) | MIC (Strep. equi. 02I001; Streptococcus equi, read-out: MIC (minimal inhibitory concentration), Strep. equi. 02I001) | MIC (minimal inhibitory concentration) (Staph. aureus 01A005; Staph. aureus 01A005, sodium salt) | MIC (Staph. aureus 01A005; 01A005, read-out: MIC (minimal inhibitory concentration), Staph. aureus 01A005)
1 | COP(=O)(O)C1N2C(=O)C(NC(=O)COc3ccccc3)C2SC1(C)C (centres unmarked) [6-(2-Phenoxyacetamido)-2,2-dimethyl-3-(0-methylphosphono)penam, sodium salt] | 200 µg/mL | > 200 µg/mL | 200 µg/mL |  |  |  |  |  |  |  | 
2 | CC1(C)S[C@@H]2C(NC(=O)COc3ccccc3)C(=O)N2C1P(=O)(O)O.[Na] (some centres unmarked) [6-(2-Phenoxyacetamido)-2,2-dimethyl-3-phosphonopenam, sodium salt] |  |  |  | > 200 µg/mL | 200 µg/mL | 100 µg/mL and 200 µg/mL | > 200 µg/mL | 100 µg/mL | > 200 µg/mL | > 200 µg/mL | 200 µg/mL
